{"source": "paper PMC8224775", "about": "“Five Tetramic Acid Derivatives Isolated from the Iranian Fungus Colpoma quercinum CCTU A372” (Biomolecules, 2021)", "experiment_in_all_cases": "5-day MTT cytotoxicity assay", "key": {"[1]": {"system": "endocervical adenocarcinoma KB-3.1", "assay_type": "cell-based, human", "conditions": "KB-3.1, 5-day MTT assay", "procedure": "(§1) Cytotoxicity of compounds 1‒5 was initially determined against two cancer cell lines (mouse fibroblasts L-929 and human endocervical adenocarcinoma KB-3.1) by using a 5-day MTT assay according to an established procedure.\n(§2) In 96-well flat-bottom microtiter plates, cell lines with serial dilution of the test compounds (final range: 37 to 0.6 × 10^−3 µg/mL) were incubated for five days. After five days, the cells were dyed using 3-(4,5-dimethyl-2-thiazolyl)-2,5-diphenyl-2H-tetrazolium bromide (MTT), which is only converted to its purple formazan derivative by living cells. The half-maximum inhibitory concentration (IC50 in µM) was calculated via the colorimetric method in a microplate reader using absorption at 595 nm. In addition, when an inhibition with an IC50 < 50 µM was observed, other cell lines were subjected to the test compounds to evaluate their further cytotoxicity: PC-3 (human prostate adenocarcinoma), SK-OV-3 (human ovary adenocarcinoma), MCF-7 (human breast adenocarcinoma), A-431 (human squamous carcinoma), and A549 (human lung carcinoma). A detailed procedure, including the colorimetric method to determine the cell viability, can be found in the SI.\n(§3) Protocol: Cytotoxicity Assay\n(§4) The assay was co nducted in 9 6-well flat -botto m microtiter plates using the parameters summarised in T able S2 and as described in [S2]. Cell l ines L-929 and KB-3.1 were incubated at 37 °C under 10 % CO2 in Gibco™ DMEM medium (T her mo Fisher Scientific, Waltham, M A, USA) supplemented with 10 % FBS. A microtiter plate was filled wit h 120 μ L o f this suspensio n (50,000/mL) in each well. Seperatel y, a nother microti ter plate wa s filled wit h 100 μL of gro wth medium in each well. Then, 50 μ L of the test compound solutions (1 mg/mL) were given to wells of the first column in two replicates (one compound per row). Cells without additives and MeOH were used as nega tive controls. Starting from the first column, 50 μ L of the solutions were gradually transferred to the next column, the contents thoroughly mixed, and 50 μL transferred to the following column. This created a serial dilution of the test compounds ranging from 333 μ g/mL to 1.9×10-3 μg/ mL. T he re mai ni ng 50 μ L after column twelve were discarded. From this microtiter plate, 60 μ L of the solutions fro m 111 μ g/mL to 1.9×10-3 μg/mL we r e give n to t he firs t p late co ntai ni ng 1 2 0 μ L of the cell suspensions (i.e. the highest co ncentration 333 μ g/ mL wa s no t used). T his resul ted in fi nal compo und concentratio ns rangi ng fro m 37 μ g/mL to 0.6×10-3 μg/ mL. After 5 days o f incubatio n under the aforementioned incubatio n conditions, the half maximu m inhibitory co ncentrations (IC50) were deter mined using a colorimetric tetrazolium d ye MT T assa y [S3]. For this, 20 μ L of a 5 mg/mL solution of 3-(4,5-dimethyl-2 -thiazolyl) -2,5-diphenyl-2H-tetrazolium br omide (MTT) were added to each well and incubated for two hours at 37 °C. T hen, the microtiter plate was ce ntrifuged (3,000 rpm, 5 min) and the supernatant removed by holding the plate upside-down and gentle shaking. Afterwards, the wells were washed using 100 μ L of phosphate buffered saline (PBS). T he plate was a gain ce ntrifuged a nd the supernata nt re mo ved as described before.\n(§5) T hen, 1 0 0 μ L of an isopropanol:HCl solution (1L isopropanol+4 mL HCl 37 % w/v) were added to the wells. After incubating for 10 min at ambient temperature, the absorption of the wells at 595 nm was measured with an Infinite® 200 Pro microplate reader (TECAN, Männedorf, Schweiz). The absorption values of the cells without additives were averaged and set to 100 % cell viability. Then, the means of absorption of the two compound replicates were set in relation to the blank media. T hese percentage values were plotted against the concentratio n range (37 μ g/mL to 0.6×10−3 μg/ mL). T he IC50 value was r ead fro m the plot (in μ g/ mL) a nd the uni ts conversed […]\nto μM. […]"}, "[2]": {"system": "human breast adenocarcinoma MCF-7", "assay_type": "cell-based", "conditions": "MCF-7, 5-day MTT assay, read-out: IC50", "procedure": "as §1, §2, §3, §4, §5\nto μM. […]"}, "[3]": {"system": "human lung carcinoma A-549", "assay_type": "cell-based", "conditions": "A549, 120 h, A-549, 5-day MTT assay, read-out: IC50", "procedure": "as §1, §2, §3, §4, §5\nto μM. […]"}, "[4]": {"system": "human prostate cancer PC-3", "assay_type": "cell-based", "conditions": "120 h, PC-3, 5-day MTT assay, read-out: IC50", "procedure": "as §1, §2, §3, §4, §5\nto μM. […]"}, "[5]": {"system": "ovarian carcinoma SK-OV-3", "assay_type": "cell-based, human", "conditions": "SK-OV-3, 5-day MTT assay, read-out: IC50", "procedure": "as §1, §2, §3, §4, §5\nto μM. […]"}, "[6]": {"system": "squamous cell carcinoma A-431", "assay_type": "cell-based, human", "conditions": "A-431, 5-day MTT assay, read-out: IC50", "procedure": "as §1, §2, §3, §4, §5\nto μM. […]"}}, "note": "pIC50: −log10 of the molar value. Read-outs that look alike come from different tables or passages of the source."}
{"smiles": "CC(=O)OC(C(=O)O)C(C)C1C(C)=CC2CC(C)CCC2C1(C)C(O)=C1C(=O)C(C)N(C)C1=O", "note": "(stereo not shown) [compound 1, Colposetin A]", "values": [{"measurement": "IC50", "setting": "[1]", "value": "not active"}]}
{"smiles": "CCC(C(=O)O)C1C(C)=CC2CC(C)CCC2C1(C)C(O)=C1C(=O)C(C)N(C)C1=O", "note": "(stereo not shown) [compound 2, Colposetin B]", "values": [{"measurement": "pIC50", "setting": "[2]; Homo sapiens, MCF7, 120 h", "value": "5.09 to 5.21"}, {"measurement": "pIC50", "setting": "[2]", "value": 5.10}, {"measurement": "pIC50", "setting": "[3]", "value": 4.78}, {"measurement": "pIC50", "setting": "[4]", "value": 4.75}, {"measurement": "pIC50", "setting": "[1]; Homo sapiens, KB 3-1, 120 h, read-out: IC50", "value": 5.24}, {"measurement": "pIC50", "setting": "[5]; Homo sapiens, SK-OV-3, 120 h", "value": "5.09 to 5.21"}, {"measurement": "pIC50", "setting": "[5]", "value": 5.09}, {"measurement": "pIC50", "setting": "[6]", "value": 5.21}, {"measurement": "pIC50", "setting": "[6]; Homo sapiens, A-431, 120 h", "value": "5.09 to 5.21"}]}
{"smiles": "CC1=CC2CC(C)CCC2C2(C)C(=O)OC(C(=O)O)C(C)C12", "note": "(stereo not shown) [compound 3, Colposetin C]", "values": [{"measurement": "IC50", "setting": "[1]", "value": "not active"}]}
{"smiles": "CC(C=CCC(C)CCC=C(C)C(=O)C1=C(O)C(C)N(C)C1=O)=CC(C)C(O)C(=O)O", "note": "(stereo not shown) [compound 4, Colpomenoic acid A]", "values": [{"measurement": "IC50", "setting": "[1]", "value": "not active"}]}
{"smiles": "CC(C=CCC(C)C=CC=C(C)C(=O)C1=C(O)C(C)N(C)C1=O)=CC(C)C(O)C(=O)O", "note": "(stereo not shown) [compound 5, Colpomenoic acid B]", "values": [{"measurement": "IC50", "setting": "[1]", "value": "not active"}]}
